According to patent publication US8999970B2, “Administration of an anti-obesity compound to individuals with renal impairment” (Arena Pharmaceuticals, Inc., priority 2010, dated 2015):
“And” between values parts separate entries of the source, which are not always exact repeats. Equal values may be shown once.

Experiments:
[1] = APD356-009 study: M1 Cmax at Week 12 following lorcaserin 10 mg BID
[2] = system: panel of receptors, ion channels and transporters; assay: Pharmacological activity of metabolites at a panel of receptors, ion channels and transporters
[3] = Toxicity studies in mice (determination of NOAEL); assay type: in vivo, mouse
Description: In the mouse, seizures occurred at single doses of 100 and 300 mg/kg lorcaserin, and death followed single doses of 1000 and 2000 mg/kg. In repeat dose studies in mice, mortality occurred at
doses ≧200 mg/kg. A dose of 250 mg/kg/day produced exposure multiples of 25 and 27 times (males and females) the exposure achieved in humans at a dose of 10 mg BID. At this dose, decreased red blood cell mass, increased reticulocytosis, increased liver weight, centrilobular hepatocellular hypertrophy, increased extramedullary hematopoeisis, and thymic necrosis occurred. The NOAEL in mice was 50 mg/kg/day, which produced exposure multiples of 7.6 and 2.3 (males and females) times the exposure in humans at 10 mg BID.

[4] = Adverse events in the renal impairment clinical study APD356-016; assay type: in vivo, human
Text: The incidence of adverse events was not related to severity of renal impairment. Events considered possibly or probably related to lorcaserin included 1 event each of abdominal pain (moderate group), diarrhea (moderate group), dyspepsia (mild group), stomach discomfort (mild group), and worsening renal impairment (moderate group). Two events of dizziness (1 in severe group, one in ESRD group) and 3 events of headache (2 normal, 1 moderate group) were considered possibly/probably related to study drug. A summary of the Treatment Emergent Adverse Events in the APD356-016 study by renal impairment groups and relationship to study drug are listed in Table 11.

[5] = Pivotal phase 3 clinical trial program (weight loss); assay type: in vivo, human
Text: (§1) In December 2009, Arena Pharmaceuticals submitted a New Drug Application, or NDA, for lorcaserin to the FDA. The NDA submission is based on an extensive data package from lorcaserin's clinical development program that includes 18 clinical trials totaling 8,576 patients. […] About two-thirds of patients achieved at least 5% weight loss and over one-third achieved at least 10% weight loss. On average, patients lost 17 to 18 pounds or about 8% of their weight. Secondary endpoints, including body composition, lipids, cardiovascular risk factors and glycemic parameters improved compared to placebo. In addition, heart rate and blood pressure went down. […] Lorcaserin improved quality of life, and there was no signal for depression or suicidal ideation. The only adverse event that exceeded the placebo rate by 5% was generally mild or moderate, transient headache. Based on a normal BMI of 25, patients in the first phase 3 trial lost about one-third of their excess body weight. The average weight loss was 35 pounds or 16% of body weight for the top quartile of patients in the second phase 3 trial.
as §1, with “Heart” for “In addition, heart”

[6] = phase 3 program, treated for up to two years

C[C@H]1CN(S(=O)(=O)O)CCc2ccc(Cl)cc21 [Compound M1, lorcaserin sulfamate]
Mean Cmax observed in patients [1]: 196 ng/mL
Activity at serotonin receptors or at a panel of more than 60 GPCRs, transporters and ion channels [2]: neither metabolite is active
Pharmacological activity against a panel of receptors, ion channels and transporters ([2]; concentration of 10 μM): pharmacologically inactive

C[C@H]1CN(C(=O)O[C@@H]2O[C@H](C(=O)O)[C@@H](O)[C@H](O)[C@H]2O)CCc2ccc(Cl)cc21 [Compound M5, N-carbamoyl glucuronide of lorcaserin]
Activity at serotonin receptors or at a panel of more than 60 GPCRs, transporters and ion channels [2]: neither metabolite is active
Pharmacological activity at all receptors, transporters and ion channels tested to date [2]: pharmacologically inactive

C[C@H]1CNCCc2ccc(Cl)cc21 [Lorcaserin, (R)-8-chloro-1-methyl-2,3,4,5-tetrahydro-1H-3-benzazepine]
NOAEL ([3]; both sexes, mouse, in vivo, mice): 50 mg/kg/day
Exposure multiple of human exposure at 10 mg BID ([3]; mice 50 mg/kg/day (NOAEL), females): 2.3 times
Exposure multiple of human exposure at 10 mg BID ([3]; mice 50 mg/kg/day (NOAEL), males): 7.6 times
Exposure multiple of human exposure at 10 mg BID ([3]; mice 250 mg/kg/day, females): 27 times
Exposure multiple of human exposure at 10 mg BID ([3]; mice 250 mg/kg/day, males): 25 times
Doses at which mortality occurred ([3]; mice, repeat dose studies): ≥ 200 mg/kg
Single doses followed by death ([3]; mouse): 1000 mg/kg and 2000 mg/kg
Events of dizziness possibly/probably related ([4]; 1 severe group, one ESRD group): Two
Events of headache possibly/probably related ([4]; 2 normal, 1 moderate group): 3
Number (%) of Subjects Reporting AEs ([4]; End Stage (N = 8)): 1 (12.5%)
Number (%) of Subjects Reporting AEs By Maximum Intensity: Mild ([4]; End Stage (N = 8)): 1 (12.5%)
Number (%) of Subjects Reporting AEs By Maximum Intensity: Moderate ([4]; End Stage (N = 8)): 0 (0.0%)
Number (%) of Subjects Reporting AEs By Maximum Intensity: Severe ([4]; End Stage (N = 8)): 0 (0.0%)
Number (%) of Subjects Reporting AEs By Most Direct Relationship to Study Treatment: Not Related ([4]; End Stage (N = 8)): 1 (12.5%)
Number (%) of Subjects Reporting AEs By Most Direct Relationship to Study Treatment: Possible ([4]; End Stage (N = 8)): 0 (0.0%)
Number (%) of Subjects Reporting AEs By Most Direct Relationship to Study Treatment: Probable ([4]; End Stage (N = 8)): 0 (0.0%)
Number (%) of Subjects Reporting AEs By Most Direct Relationship to Study Treatment: Unlikely ([4]; End Stage (N = 8)): 0 (0.0%)
Number of AEs Reported ([4]; End Stage (N = 8)): 1
Number (%) of Subjects Reporting AEs ([4]; Mild (N = 8)): 2 (25.0%)
Number (%) of Subjects Reporting AEs By Maximum Intensity: Mild ([4]; Mild (N = 8)): 2 (25.0%)
Number (%) of Subjects Reporting AEs By Maximum Intensity: Moderate ([4]; Mild (N = 8)): 0 (0.0%)
Number (%) of Subjects Reporting AEs By Maximum Intensity: Severe ([4]; Mild (N = 8)): 0 (0.0%)
Number (%) of Subjects Reporting AEs By Most Direct Relationship to Study Treatment: Not Related ([4]; Mild (N = 8)): 0 (0.0%)
Number (%) of Subjects Reporting AEs By Most Direct Relationship to Study Treatment: Possible ([4]; Mild (N = 8)): 1 (12.5%)
Number (%) of Subjects Reporting AEs By Most Direct Relationship to Study Treatment: Probable ([4]; Mild (N = 8)): 1 (12.5%)
Number (%) of Subjects Reporting AEs By Most Direct Relationship to Study Treatment: Unlikely ([4]; Mild (N = 8)): 0 (0.0%)
Number of AEs Reported ([4]; Mild (N = 8)): 3
Number (%) of Subjects Reporting AEs ([4]; Moderate (N = 8)): 5 (62.5%)
Number (%) of Subjects Reporting AEs By Maximum Intensity: Mild ([4]; Moderate (N = 8)): 4 (50.0%)
Number (%) of Subjects Reporting AEs By Maximum Intensity: Moderate ([4]; Moderate (N = 8)): 1 (12.5%)
Number (%) of Subjects Reporting AEs By Maximum Intensity: Severe ([4]; Moderate (N = 8)): 0 (0.0%)
Number (%) of Subjects Reporting AEs By Most Direct Relationship to Study Treatment: Not Related ([4]; Moderate (N = 8)): 1 (12.5%)
Number (%) of Subjects Reporting AEs By Most Direct Relationship to Study Treatment: Possible ([4]; Moderate (N = 8)): 3 (37.5%)
Number (%) of Subjects Reporting AEs By Most Direct Relationship to Study Treatment: Probable ([4]; Moderate (N = 8)): 0 (0.0%)
Number (%) of Subjects Reporting AEs By Most Direct Relationship to Study Treatment: Unlikely ([4]; Moderate (N = 8)): 1 (12.5%)
Number of AEs Reported ([4]; Moderate (N = 8)): 9
Number (%) of Subjects Reporting AEs ([4]; Normal (N = 8)): 4 (50.0%)
Number (%) of Subjects Reporting AEs By Maximum Intensity: Mild ([4]; Normal (N = 8)): 4 (50.0%)
Number (%) of Subjects Reporting AEs By Maximum Intensity: Moderate ([4]; Normal (N = 8)): 0 (0.0%)
Number (%) of Subjects Reporting AEs By Maximum Intensity: Severe ([4]; Normal (N = 8)): 0 (0.0%)
Number (%) of Subjects Reporting AEs By Most Direct Relationship to Study Treatment: Not Related ([4]; Normal (N = 8)): 0 (0.0%)
Number (%) of Subjects Reporting AEs By Most Direct Relationship to Study Treatment: Possible ([4]; Normal (N = 8)): 1 (12.5%)
Number (%) of Subjects Reporting AEs By Most Direct Relationship to Study Treatment: Probable ([4]; Normal (N = 8)): 1 (12.5%)
Number (%) of Subjects Reporting AEs By Most Direct Relationship to Study Treatment: Unlikely ([4]; Normal (N = 8)): 2 (25.0%)
Number of AEs Reported ([4]; Normal (N = 8)): 4
Number (%) of Subjects Reporting AEs ([4]; Severe (N = 8)): 3 (37.5%)
Number (%) of Subjects Reporting AEs By Maximum Intensity: Mild ([4]; Severe (N = 8)): 3 (37.5%)
Number (%) of Subjects Reporting AEs By Maximum Intensity: Moderate ([4]; Severe (N = 8)): 0 (0.0%)
Number (%) of Subjects Reporting AEs By Maximum Intensity: Severe ([4]; Severe (N = 8)): 0 (0.0%)
Number (%) of Subjects Reporting AEs By Most Direct Relationship to Study Treatment: Not Related ([4]; Severe (N = 8)): 0 (0.0%)
Number (%) of Subjects Reporting AEs By Most Direct Relationship to Study Treatment: Possible ([4]; Severe (N = 8)): 1 (12.5%)
Number (%) of Subjects Reporting AEs By Most Direct Relationship to Study Treatment: Probable ([4]; Severe (N = 8)): 0 (0.0%)
Number (%) of Subjects Reporting AEs By Most Direct Relationship to Study Treatment: Unlikely ([4]; Severe (N = 8)): 2 (25.0%)
Number of AEs Reported ([4]; Severe (N = 8)): 4
Relation of incidence of adverse events to severity of renal impairment ([4]; human, in vivo): not related
Events of dyspepsia possibly or probably related ([4]; mild group): 1
Events of stomach discomfort possibly or probably related ([4]; mild group): 1
Events of abdominal pain possibly or probably related ([4]; moderate group): 1
Events of diarrhea possibly or probably related ([4]; moderate group): 1
Events of worsening renal impairment possibly or probably related ([4]; moderate group): 1
Excess body weight lost ([5]; first phase 3 trial, based on a normal BMI of 25): about one-third
Average weight lost, of their weight ([5]; phase 3 program): about 8%
Risk of cardiac valvulopathy ([5]; phase 3 program): did not increase the risk
Patients who achieved at least 5% weight loss [5, 6]: About two-thirds
Patients who achieved at least 10% weight loss [5, 6]: over one-third
Average weight loss, top quartile of patients ([5]; second phase 3 trial): 35 pounds
Average weight loss, top quartile of patients, of body weight ([5]; second phase 3 trial): 16%
